Data on 13 compounds can be found in patent publication US4743610A, “N-[ω(3-pyridinyl)alkyl]benzamides, useful as thromboxane synthetase enzyme and/or cardioprotective agents” (American Cyanamid Company, priority 1987, dated 1988).

Structures can show the parent of a compound that is named as a salt.

One test has as its system Sprague-Dawley rats. Description: In Vivo Test for the Prevention of Death Due to Infarction. The note with it: 3 rats infarcted, 10 mg/kg intraperitoneal 1 h before 10 mg/kg s.c. (-)isoproternol hydrochloride, observed 2.5 hours; for responders at 10 mg/kg: Rattus norvegicus, ip, read-out: % Survival. The protocol:
Beitz, Toxicology and Applied Pharmacology 62, 152-157 (1982) was performed as follows:
In Vivo Test for the Prevention of Death Due to Infarction
Sprague-Dawley rats were pretreated with an intraperitoneal injection of the test compound at 10 mg/kg of body weight. One hour later, a myocardial infarction was induced by injection 10 mg/kg of (-)isoproternol hydrochloride subcutaneously. Each compound was tested in at least three rats. […] The compound is considered "in vivo active" in those groups in which all animals survive the myocardial infarction.

Test [1] has as its target T1, thromboxane synthetase enzyme (Rattus norvegicus, UniProt P49430).
T1 construct: The platelets were isolated by centrifuging the PRP for 10 minutes; endogenous in cells; host or cells: washed platelets from arterial blood of Okamoto-Aoki spontaneously hypertensive rats (SHR; animals from Taconic Farms, Germantown, N.Y.)
T1 sequence (P49430 1-533): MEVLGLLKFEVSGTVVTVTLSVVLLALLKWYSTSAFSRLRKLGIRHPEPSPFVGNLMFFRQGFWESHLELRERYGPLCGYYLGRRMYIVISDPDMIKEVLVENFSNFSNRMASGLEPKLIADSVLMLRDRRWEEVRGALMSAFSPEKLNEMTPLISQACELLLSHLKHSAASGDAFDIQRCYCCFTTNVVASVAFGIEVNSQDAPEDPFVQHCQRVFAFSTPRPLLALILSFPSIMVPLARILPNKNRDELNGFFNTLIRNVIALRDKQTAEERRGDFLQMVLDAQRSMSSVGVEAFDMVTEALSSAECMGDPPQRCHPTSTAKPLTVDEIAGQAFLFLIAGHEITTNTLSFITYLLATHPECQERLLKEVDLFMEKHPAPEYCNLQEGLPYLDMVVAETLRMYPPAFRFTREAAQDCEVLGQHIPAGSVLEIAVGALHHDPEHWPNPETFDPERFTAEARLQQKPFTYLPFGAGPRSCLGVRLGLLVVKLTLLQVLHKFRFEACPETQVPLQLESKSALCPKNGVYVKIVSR
Briefly: Inhibition of thromboxane formation (TXB2 RIA) in washed platelets of spontaneously hypertensive rats. Format: cell-based, Okamoto-Aoki spontaneously hypertensive rats (SHR). To be noted: SHR platelets, 10 minutes at 37° C.; drug concentration not given. The protocol: Under urethan anesthesia, […] of arterial blood was collected in one ml. of 3.2% sodium citrate in a polystyrene tube from Okamoto-Aoki spontaneously hypertensive rats (SHR) (Taconic Farms, Germantown, N.Y.) between 19 and 24 weeks in age. The blood was diluted with 3 ml. of cold saline and centrifuged at room temperature for 15 minutes at 460×g. The platelet rich plasma (PRP) was separated. The platelets were isolated by centrifuging the PRP for 10 minutes at 1060 xg and were washed in 4 ml. of cold oxygenated Krebs phosphate buffer, pH 7.4. The chilled platelets recovered from centrifuging at 800×g for 10 minutes were resuspended in oxygenated Krebs phosphate buffer and diluted to contain 4.5-6.0×10^4 platelets/μl. The inhibition of thromboxane (TX) formation was studied by determining the concentration of thromboxane B2 (TXB2), the stable hydrolysis product of TXA2. Assay samples, prepared on ice, contained 200 μl platelet suspension, 50 μl saline, and 50 μl vehicle or drug under study (OKY1581, UK-37248-01, 1-benzylimidazole, or indomethacin). The samples were incubated for 10 minutes at 37° C. in a metabolic shaker. The reaction was terminated by immersing the tubes in an ice bath and adding 50 μl of 0.5M citric acid. The samples were centrifuged for 10 minutes in a refrigerated centrifuge and the supernatants thus obtained were decanted and stored at -20° C. The TXB2 content for each sample was determined by a direct radioimmunoassay (RIA) utilizing a TXB2 specific RIA kit purchased from New England Nuclear, Boston, MA. and expressed as pg TXB2 formed minute^-1 sample^-1, from which the percent inhibition of TXB2 formation was calculated.

With `Cl.Cl.Nc1ccccc1C(=O)NCCCCc1cccnc1` [Example 2, 2-Amino-N-[4-(3-pyridinyl)butyl]benzamide dihydrochloride], in the test on Sprague-Dawley rats, the “No. of Rats Surviving” value came out at 3 and the responders at 10 mg/kg came to 100%. The “% Inhibition (of TXB2 formation)” value in test [1] worked out at 97%.
`Cl.Cl.Nc1ccc(Cl)cc1C(=O)NCCCCc1cccnc1` [Example 3, 2-Amino-5-chloro-N-[4-(3-pyridinyl)butyl]benzamide dihydrochloride]: in the test with Sprague-Dawley rats, the “No. of Rats Surviving” value is reported as 3 and the responders at 10 mg/kg worked out at 100%.
As to `Nc1cc(Cl)ccc1C(=O)NCCCc1cccnc1` [2-Amino-4-chloro-N--[3-(3-pyridinyl)propyl]benzamide, dihydrochloride], in the test with Sprague-Dawley rats, the “No. of Rats Surviving” value came out at 3 and the responders at 10 mg/kg came out at 100%.
As for `Nc1cc(Cl)ccc1C(=O)NCCCc1cccnc1` [Example 9, 2-Amino-4-chloro-N-[3-(3-pyridinyl)propyl]benzamide], the “% Inhibition (of TXB2 formation)” value in test [1] was 95%.
With `CNc1ccc(Cl)cc1C(=O)NCCCCc1cccnc1.Cl.Cl` [Example 4, 5-Chloro-2-(methylamino)-N-[4-(3-pyridinyl)butyl]benzamide dihydrochloride], in test [1], the “% Inhibition (of TXB2 formation)” value turned out to be 99%.
For the compound `Cl.Cl.Nc1cc(Cl)ccc1C(=O)NCCCCc1cccnc1` [Example 6, 2-Amino-4-Chloro-N-[4-(3-pyridinyl)butyl]benzamide dihydrochloride], in the test with Sprague-Dawley rats, the “No. of Rats Surviving” value is 3 and the responders at 10 mg/kg was determined as 100%.
Take `Cl.Cl.Nc1c(C(=O)NCCCc2cccnc2)cccc1C(F)(F)F` [Example 11, 2-Amino-N-[3-(3-pyridinyl)propyl]-3-(trifluoromethyl)benzamide dihydrochloride]: the “% Inhibition (of TXB2 formation)” value in test [1] came to 98%.
Regarding `Cc1ccc(N)c(C(=O)NCCCCc2cccnc2)c1.Cl.Cl` [Example 7, 2-Amino-5-methyl-N-[4-(3-pyridinyl)butyl]benzamide dihydrochloride], in the test on Sprague-Dawley rats, the “No. of Rats Surviving” value is given as 3 and the responders at 10 mg/kg turned out to be 100%. In test [1], the “% Inhibition (of TXB2 formation)” value came to 100%.
Consider `O=C(O)c1ccc(Cl)cc1C(=O)NCCCCc1cccnc1` [Example 14, 4-Chloro-2-[[[4-(3-pyridinyl)butyl]amino]carbonyl]benzoic acid], for which, in the test with Sprague-Dawley rats, the “No. of Rats Surviving” value was determined as 3 and the responders at 10 mg/kg was 100%. Also, the “% Inhibition (of TXB2 formation)” value in test [1] turned out to be 100%.
As for `O=C(O)c1ccccc1C(=O)NCCCCc1cccnc1` [Example 13, 2-[[[4-(3-Pyridinyl]butyl]amino]carbonyl]benzoic acid], the “% Inhibition (of TXB2 formation)” value in test [1] is on record as 92%.
On to `O=C(O)c1ccccc1C(=O)NCCc1cccnc1` [Example 12, 2-[[[2-(3-Pyridinyl)ethyl]amino]carbonyl]benzoic acid], for which, in the test with Sprague-Dawley rats, the “No. of Rats Surviving” value was 3 and the responders at 10 mg/kg was found to be 100%.
Consider `Nc1ccc(Cl)cc1C(=O)NCCCc1cccnc1` [2-Amino-5-chloro-N--[3-(3-pyridinyl)propyl]benzamide dihydrochloride], for which the “% Inhibition (of TXB2 formation)” value in test [1] is reported as 98%.
As to `Nc1ccccc1C(=O)NCCc1cccnc1` [Example 1, 2-Amino-N-[2-(3-pyridinyl)ethyl]benzamide], in the test on Sprague-Dawley rats, the “No. of Rats Surviving” value came out at 3 and the responders at 10 mg/kg stood at 100%.
